Results as given in US20220402883A1, “COMPOUNDS AND METHODS FOR MODULATING RNA FUNCTION” (Arrakis Therapeutics, Inc., priority 2016, published 2022).
Where a name gives a salt, the structure may show the parent alone.

Columns and labels:
41CAG RNA (476 nt) = experiment: NMR competition experiments (WaterLOGSY); type: binding; details: 100 μM compound, 2.5 μM RNA
Protocol: Competition experiments were also performed. Test Sample: 2.5 μM 41CAG RNA (476 nt) was combined with the following: 100 μM HP-AC008002-E01 (A); +/−200-400 μM HP-AC008001-E02 (B); and +/−200-400 μM HP-AT005003-C03 (C). ^1H 1D Watergate & WaterLOGSY spectra recorded of HP-AC008002-E01 are used as a reference.
In a further experiment, as Test Sample 2.5 μM 41CAG RNA (476 nt) was used in the presence of: 100 μM HP-AC008001-E02 (B) or 100 μM HP-AT005003-C03 (C); +/−200-400 μM HP-AC008002-E01 (A). ^1H 1D Watergate and WaterLOGSY spectra recorded single cmpds were used as a reference.
In a further experiment, as Test Sample: 2.5 μM 41CAG RNA (476 nt) was used in the presence of: 100 μM HP-AC008001-E02 (B)+/−200-400 μM HP-AT005003-C03 (C). ^1H 1D Watergate & WaterLOGSY spectra recorded of single cmpd HP-AC008001-E02 were used as a reference.

[1] = tested on: 17CAG and 41CAG RNA (httmRNA); experiment: Ligand observed NMR binding assay for CAG repeat RNA; details: 3 μM RNA, 200 μM compound, 288 K
Protocol: Following the above procedure, various tool and test compounds were assayed for binding. In a first series of experiments, compounds were tested for binding to 17CAG or 41CAG (sample was 3 μM in RNA). […] However, several of the compounds did show significant changes in their signals in the presence of the two RNA target species.
Purpose: Test direct binding of compounds for httmRNA (construct with 41 CAG repeats 474 nt) and others as described below. Ligand observed NMR assay to test direct binding of fragments to RNA target (e.g. construct with 41 CAG repeats 474 nt). Single compound hits were identified for further characterization by orthogonal assay (e.g. surface plasmon resonance, SPR). Ligand observed assay was used for primary screen and deconvolution into single fragment hits. Established experiments were eventually used for group epitope mapping.
This assay tests for direct binding of compounds to httmRNA and may be adapted for other repeat RNAs. Compounds are tested in pools (i.e. pool size of 12 fragments in each sample in the primary screen and smaller pool sizes during deconvolution and eventually single compound measurements).
Sample buffer: 10 mM Tris-HCl, pH 8.0, 0.78 g [MW: 157.56 g/mol]; 75 mM KCl, 2.79 g [MW: 74.55 g/mol]; 3 mM MgCl2, 0.14 g [MW: 95.21 g/mol]; fill up to 500 mL with Millipore H2O.
Dried RNA pellet is solubilized in sample buffer 10 mM Tris-HCl pH 8.0, 75 mM KCl, 3 mM MgCl2. RNA aliquot at 13.9 μM (stock concentration) is denatured at 95° C. for 3 min and snap-cooled on ice for 3 min, and refolded at 37° C. for 30 min.
Final concentrations in the sample: 200 μM each fragment and 3 μM RNA target molecule.
Sample is placed into magnet and temperature adjusted to 288 K. Spectrometer frequency at 600 MHz is matched and tuned. Magnetic field is shimmed to homogenize magnetic field around the sample.
Sequence of experiments includes a Proton 1D experiment with a Watergate sequence for water suppression, a WaterLOGSY (WLOGSY) and a 1D Saturation transfer difference (STD) experiment to test for direct binding of the compounds to the RNA.
Details for 1D Watergate experiment: For each 1D WATERGATE spectrum a total of 8192 complex points in f1 (^1H) with 128 scans were acquired (experiment time 4 min.). The spectral width was set to 16.66 ppm.
Details WLOGSY experiment: For the WLOGSY-spectrum, a total of 1024 complex points in f1 (^1H) with 256 scans were acquired (experiment time 25 min.). The carrier frequency for ^1H was set at the water resonance (˜4.7 ppm). The spectral width was set to 16.66 ppm in the direct dimension (^1H).
Details STD experiment: For the STD-spectrum, a total of 1024 complex points in f1 (^1H) with 1024 scans were acquired (experiment time 65 min.). The carrier frequency for ^1H was set at the water resonance (˜4.7 ppm). The spectral width was set to 16.66 ppm in the direct dimension (^1H). For the on-resonance experiments saturation is set to 2.0 sec at a saturation frequency of −2500 Hz. For the off-resonance experiment saturation frequency is set at 10200 Hz.
Python scripts were used to process all recorded spectra in the assay setup, screening and deconvolution process. Spectra were analyzed for direct binding signals of the compounds. Identified single compound hits were reported.

RNA3WJ_3.0.0_5IB_3FAM = experiment: Thermal shift binding assay; details: RNA:ligand ratios 1:1, 1:3
Excerpt: (§1) Purpose: Test binding of compounds for RNA three way junction (for example, a construct of 38 nt). Thermal shift assay based on established fluorescence quenching assay utilizing FAM as fluorescence tag and Iowa Black as quencher. Tags were attached at the 3′ and 5′ end, respectively. Stable formation of 3WJ upon compound binding would lead to quenching of the FAM fluorescence due to close proximity of the Iowa Black tag. Thermal unfolding leads to increase of fluorescence emission. Assay readout: FAM (465-510 nm) Thermal Shift.
(§2) Assay sample buffer used: 10 mM CacoK pH 7.2, 30 mM NaCl. Buffer preparation in Dnase/Rnase Free distilled water (Gibco Life Technologies).
(§3) Dilute the RNA 1:10 (final 10 μM) in Assay Buffer.
(§4) Heat up the diluted RNA up to 90° C. for 5 min (sealed Eppendorf Tube).
(§5) Cool down the RNA probe slowly to RT.
(§6) Dilute the compounds to 800 μM in DMSO (Assay: 8 μM). […]
(§7) Pipet 20 μL Sample Solution into Roche, Light Cycler480 Multiwell Plate96, white, REF 04729692001.
(§8) Measure the 96 plate with the LightCycler480 (Channel: 480/510 nm; Temperature: 41-91° C.).
(§9) Analyse measurement-data with the MeltingCurveGenotyping Mode.
(§10) Settings: Acquisition mode: continuous; Ramp rate: 0.1° C./sec; Acquisition: 6° C.
(§11) Curves are fitted with raw and normalized data.
(§12) Melting curves analysis show melting temperature (Tm) of ˜51° C. Range of RNA concentrations was tested and assay window was determined (conc. range of 0.5-1 μM yields best results). The choice of buffer also affected the Tm. RNA constructs were tested under different buffer conditions (especially in presence of salt) in the thermal shift assay. […] CacoK with 30 mM salt at 1 μM RNA conc. was used to assess compound effects on 3WJ stability. […] These conditions were used for screening test compounds.

[2] = tested on: RNA3WJ_0.0.0_5IB_3FAM (3WJ_0.0.0_5IB_3FAM RNA construct); experiment: Thermal shift binding assay; details: for Melt. Temp. with cmpd / Shift melt. Temp.: RNA sequence 3WJ_0.0.0_5IB_FAM; for Melt. Temp. with cmpd: melting temperature in presence of compound; for Shift melt. Temp.: with cmpd minus without cmpd
Excerpt: as §1, §2, §3, §4, §5, §6, §7, §8, §9, §10, §11, §12

[3] = tested on: RNA3WJ_1.0.0_5IB_3FAM (cis 3WJ with one unpaired nucleotide); experiment: Thermal shift binding assay; details: RNA:ligand ratios 1:1, 1:3
Excerpt: as §1, §2, §3, §4, §5
(§13) Dilute the compounds to 800 μM in DMSO (Assay: 8 μM).
Final concentrations in the sample: 1 μM RNA, 8 μM compound, 1% DMSO
as §7, §8, §9, §10, §11, §12
Compounds Ark0000013 and Ark0000014 were also tested in the thermal shift assay against three RNA 3WJ constructs, A) RNA3WJ_1.0.0_5IB_3FAM (cis 3WJ with one unpaired nucleotide); B) Split3WJ.1_up_5IB+Split3WJ.1_down_3FAM (trans 3WJ as 1:1 mix); and C) Split3WJ.2_up_5IB+Split3WJ.2_down_3FAM (trans 3WJ as 1:1 mix).

[4] = tested on: 3WJ_0.0.0_5IB_3FAM RNA construct; experiment: Fluorescence quenching binding assay (FAM / Iowa Black); details: concentration dependent; effect at conc. >5 μM
Protocol: This assay will be used to test binding of compounds for RNA three way junction (such as a 38 nt construct). This is a fluorescence quenching assay utilizing FAM as fluorescence tag and Iowa Black as quencher. Tags are attached at the 3′ and 5′ end, respectively. Stable formation of MW upon compound binding would lead to quenching of the FAM fluorescence due to close proximity of the Iowa Black tag. Assay readout: FAM (485-520 nm) Fluorescence Intensity.
as §2, §3, §4, §5, §13
Final concentrations in the sample: 1-10 μM RNA, 8 μM compound, 1% DMSO
Pipet 25 μL Sample Solution into Greiner cat #784076, black, 384
Measure the 96 plate with the LightCycler480 (Channel: 485/520 nm).
Calibration of the expected fluorescence signal at various RNA concentrations in either CacoK or NaPO4 buffers was performed first. Experiments in buffers containing salt show distinct fluorescence quenching behavior. […]
First, two compounds (i.e. Ark000007 & Ark000008) were tested in the fluorescence quenching assay to assess concentration dependent influence on the fluorescence signal.

[5] = competitor HP-AC008002-E01 200-400 μM (up to 1:4)
[6] = 1 μM RNA, 8 μM compound, 10 mM CacoK pH 7.2, 30 mM NaCl

STD signal [1]	Melt. Temp. with cmpd [2] [°C]	Shift melt. Temp. [2]	Compound	other results
	60.0	−0.3 °C	O=C(O)CCC12C3=C(CCNC3)C(c3ccccc31)c1ccccc12 [ARK000019]	
	60.2	+0.4 °C	CC(C)(C)OC(=O)NCCCC[C@H](NC(=O)OC(C)(C)C)C(=O)Nc1ccc2c(c1)C1(CCC(=O)NCCOCCOCCN)c3cc(NC(=O)[C@H](CCCCNC(=O)OC(C)(C)C)NC(=O)OC(C)(C)C)ccc3C2c2ccc(NC(=O)[C@H](CCCCNC(=O)OC(C)(C)C)NC(=O)OC(C)(C)C)cc21 [ARK000022]	
	62.9	+0.6 °C	C#CCCCC(=O)NC[C@H]1O[C@H](O[C@H]2[C@H](O)[C@@H](O[C@H]3O[C@H](CN=[N+]=[N-])[C@@H](O)[C@H](N)[C@H]3O)[C@H](N)C[C@@H]2N)[C@H](O)[C@@H](O)[C@@H]1O [ARK000009]	

The remaining lines, values behind:

Compound	STD signal [1]	Melt. Temp. with cmpd [2] [°C]	Shift melt. Temp. [2]	other results
OCc1cccc(-c2cccnc2)c1 [HP-AC008002-E01]	distinct			WaterLOGSY signals in the presence of competitor (41CAG RNA (476 nt); competitor HP-AC008001-E02 or HP-AT005003-C03 200-400 μM (up to 1:4)): still observed
CC(O)CNCc1ccc(-c2ccccc2)o1 (stereo not shown) [HP-AT005003-C03]	distinct			WaterLOGSY signals in the presence of competitor (41CAG RNA (476 nt); [5]): still observed
NCc1ccc2ccccc2n1 [HP-AC008004-C07]	weak			
O=C(c1ccc(Cl)cc1)N1CCN(c2ccc([N+](=O)[O-])c3ncccc23)CC1 [CPNQ, reference compound]	distinct			
CN(CCCN)CCCNC(=O)c1ccccc1 [Ark000039]		60.3	−1.2 °C	effect in the melting curves (raw and normalized data) (RNA3WJ_3.0.0_5IB_3FAM): lack of effect; effect in the melting curves (raw and normalized data) ([2]; RNA:ligand ratios 1:1, 1:3): no significant effect; effect in the melting curves (raw and normalized data) [3]: lack of effect
C#CCCCC(=O)NC[C@H]1O[C@H](O[C@H]2[C@H](O)[C@@H](O[C@H]3O[C@H](CO)[C@@H](O)[C@H](N)[C@H]3O)[C@H](N)C[C@@H]2N)[C@H](O)[C@@H](O)[C@@H]1O [Ark000008]		61.8	+0.6 °C	effect on melting temperature (in words) ([2]; 1 μM RNA, 8 μM compound): only a very small effect; fluorescence quenching effect (FAM fluorescence signal) [4]: Only Ark000007 showed an increase of quenching effect
[N-]=[N+]=NC[C@H]1O[C@H](O[C@@H]2[C@@H](O)[C@H](O[C@H]3O[C@H](CN)[C@@H](O)[C@H](O)[C@H]3O)[C@@H](N)C[C@H]2N)[C@H](O)[C@@H](N)[C@@H]1O [Ark000007, 6″-Azido-Kanamycin a Hydrochloride Salt]		65.6	+4.4 °C	Melting temp + cmpd [2, 6]: 65.6 °C; Temp. Shift [2, 6]: ~5 °C; fluorescence quenching effect (FAM fluorescence signal) [4]: increase of quenching effect
Cc1nn(-c2ccccc2)nc1CN [HP-AC008001-E02]	distinct			WaterLOGSY signals in the presence of competitor (41CAG RNA (476 nt); [5]): still observed; WaterLOGSY signals in the presence of competitor (41CAG RNA (476 nt); competitor HP-AT005003-C03 200-400 μM (up to 1:4)): still observed
CN(CCOCCN(C)C(=O)[C@@H]1C[C@H](N=[N+]=[N-])CN1C(=O)COc1ccc2c(=O)oc(=O)n(C)c2c1)C(=O)CCC12c3cc(NC(=O)CCCCCCCN)ccc3C(c3ccc(NC(=O)CCCCCCCN)cc31)c1ccc(NC(=O)CCCCCCCN)cc12 [ARK000024, N,N′,N″-(9-(3-((2-(2-((2S,4S)-4-azido-N-methyl-1-(2-((1-methyl-2,4-dioxo-1,4-dihydro-2H-benzo[d][1,3]oxazin-7-yl)oxy)acetyl)pyrrolidine-2-carboxamido)ethoxy)ethyl)(methyl)amino)-3-oxopropyl)-9,10-dihydro-9,10-[1,2]benzenoanthracene-2,7,15-triyl)tris(8-aminooctanamide)]		60.7	+0.3 °C	
